# In patent US12459899B2, “Isoquinolinone derivatives, method for preparing the same, and pharmaceutical composition for preventing or treating poly(ADP-ribose) polymerase-1-related diseases, comprising the same as active ingredient” (DIGMBIO. INC., priority 2019, dated 2025):
# Molecular target: PARP-1 (poly[ADP-ribose] polymerase 1) enzyme (Homo sapiens (Human), UniProt P09874)
# Assay: PARP-1 (poly[ADP-ribose] polymerase 1) enzyme inhibitory ability, Trevigen assay kit
# Assay type: biochemical
# Settings: 1 nM compound; read-out: PAR P-1 Inhibitory ability at 1 nM
# Method: In order to evaluate the PARP-1 (poly[ADP-ribose] polymerase 1) enzyme inhibitory ability of the compounds according to the present invention, an experiment was conducted as follows.
# Specifically, in order to evaluate the PARP-1 (poly[ADP-ribose] polymerase 1) enzyme inhibitory ability of the compounds of Examples 1 to 276 according to the present invention, the PARP-1 (poly[ADP-ribose] polymerase 1) activity was investigated in the following manner using an assay kit purchased from Trevigen, Inc. (Catalog number: 4677-096-K). 50 μL of 1×PARP buffer (provided by Trevigen's kit) was dispensed into a 96-well plate coated with histones per each well, and then rehydrated for 30 minutes. After removing the 1×PARP buffer present in the well, PARP-1 (poly[ADP-ribose] polymerase 1) enzyme (0.5 unit/well) and 1 μM concentration or various concentrations of the compounds of Example 1 to 276 were added at room temperature and reacted for 10 minutes. Thereafter, each well was treated with 25 μL of 1×PARP cocktail (biotinylated NAD, activated DNA, provided by Trevigen's kit), and then reacted at room temperature for 1 hour. After the reaction was completed, each well was washed twice with PBS (7.5 mM Na2HPO4, 2.5 mM NaH2PO4, 145 mM NaCl) containing 0.1% triton X-100, and washed twice with PBS. Then, 50 μL of strep-HRP (streptavidin-linked peroxidase) was added and reacted at room temperature for 1 hour, and then washed twice with PBS containing 0.1% triton X-100, and washed twice with PBS. After removing all PBS, 50 μL of TACS-sapphire, a substrate, was added, and reacted at room temperature for 15 minutes while blocking the light. After the reaction was terminated by treatment with 50 μL of 5% phosphoric acid to each well, the absorbance was measured at 450 nm using a microplate reader Victor3 from PerkinElmer, Inc. to quantify the value.
# PARP-1 (poly[ADP-ribose] polymerase 1) enzyme, sequence (P09874 whole entry): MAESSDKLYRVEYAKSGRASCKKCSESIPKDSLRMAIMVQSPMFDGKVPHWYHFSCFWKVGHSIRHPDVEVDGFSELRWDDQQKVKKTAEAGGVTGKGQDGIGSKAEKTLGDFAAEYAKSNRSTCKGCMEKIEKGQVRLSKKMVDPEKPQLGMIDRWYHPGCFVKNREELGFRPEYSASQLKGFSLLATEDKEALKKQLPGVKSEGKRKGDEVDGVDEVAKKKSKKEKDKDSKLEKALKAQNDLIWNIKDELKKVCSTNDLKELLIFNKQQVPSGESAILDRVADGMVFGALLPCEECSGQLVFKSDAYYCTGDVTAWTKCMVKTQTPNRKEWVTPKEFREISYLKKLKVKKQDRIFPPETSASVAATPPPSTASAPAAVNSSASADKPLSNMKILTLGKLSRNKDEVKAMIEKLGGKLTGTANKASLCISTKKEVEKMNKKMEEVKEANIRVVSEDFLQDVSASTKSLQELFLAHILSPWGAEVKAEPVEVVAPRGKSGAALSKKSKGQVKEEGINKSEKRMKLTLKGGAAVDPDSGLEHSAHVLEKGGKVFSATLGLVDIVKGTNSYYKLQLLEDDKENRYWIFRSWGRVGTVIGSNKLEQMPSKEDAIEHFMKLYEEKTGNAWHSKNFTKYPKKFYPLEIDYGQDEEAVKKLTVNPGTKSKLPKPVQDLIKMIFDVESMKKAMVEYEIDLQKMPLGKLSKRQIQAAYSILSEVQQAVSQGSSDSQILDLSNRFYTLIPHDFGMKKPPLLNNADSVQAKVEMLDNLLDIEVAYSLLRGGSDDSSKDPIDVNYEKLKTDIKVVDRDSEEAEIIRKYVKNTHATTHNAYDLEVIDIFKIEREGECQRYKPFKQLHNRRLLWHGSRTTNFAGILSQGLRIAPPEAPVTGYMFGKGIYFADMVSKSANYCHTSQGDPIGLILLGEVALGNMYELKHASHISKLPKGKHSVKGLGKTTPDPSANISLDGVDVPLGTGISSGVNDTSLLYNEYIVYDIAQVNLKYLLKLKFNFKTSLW
row,Compound,inhibition at 0.001 µM [%]
1,"CN(c1ccc(C#N)cc1)C1CCN(C(=O)CCc2cc3cccc(F)c3c(=O)[nH]2)CC1 [Example 257, 4-((1-(3-(8-fluoro-1-oxo-1,2-dihydroisoquinolin-3-yl)propanoyl)piperidin-4-yl)(methyl)amino)benzonitrile]",< 50
2,"N#Cc1ccc(NC2CCN(C(=O)CCc3cc4cccc(F)c4c(=O)[nH]3)CC2)cn1 [Example 258, 5-((1-(3-(8-fluoro-1-oxo-1,2-dihydroisoquinolin-3-yl)propanoyl)piperidin-4-yl)amino)picolinonitrile]",< 50
3,"Cc1ccc(F)c2c(=O)[nH]c(CCC(=O)N3CCN(C(=O)C4CCC4)CC3)cc12 [Example 179, 3-(3-(4-(cyclobutanecarbonyl)piperazin-1-yl)-3-oxopropyl)-8-fluoro-5-methylisoquinolin-1(2H)-one]",< 50
4,"N#Cc1cc(F)ccc1C1=CCN(C(=O)CCc2cc3ccc(F)cc3c(=O)[nH]2)CC1 [Example 112, 5-fluoro-2-(1-(3-(7-fluoro-1-oxo-1,2-dihydroisoquinolin-3-yl)propanoyl)-1,2,3,6-tetrahydropyridin-4-yl)benzonitrile]",< 50
5,"Cc1cc(F)cc2c(=O)[nH]c(CCCN3CCN(c4ccc(C#N)cn4)CC3)cc12 [Example 36, 6-(4-(3-(7-fluoro-5-methyl-1-oxo-1,2-dihydroisoquinolin-3-yl)propyl)piperazin-1-yl)nicotinonitrile]",50 to 80
6,"Cc1ccc(F)c2c(=O)[nH]c(CCC(=O)N3C4CCC3CN(c3ccc(Cl)cc3)C4)cc12 [Example 210, 3-(3-(3-(4-chlorophenyl)-3,8-diazabicyclo[3.2.1]octan-8-yl)-3-oxopropyl)-8-fluoro-5-methylisoquinolin-1(2H)-one]",< 50
7,"Cc1cc(F)cc2c(=O)[nH]c(CCC(=O)N3C4CCC3CN(c3ccc(F)cn3)C4)cc12 [Example 219, 7-fluoro-3-(3-(3-(5-fluoropyridin-2-yl)-3,8-diazabicyclo[3.2.1]octan-8-yl)-3-oxopropyl)-5-methylisoquinolin-1(2H)-one]",< 50
8,"Cc1ccc(F)c2c(=O)[nH]c(CCC(=O)N3CCN(c4ccc(C#N)cc4F)CC3)cc12 [Example 128, 3-fluoro-4-(4-(3-(8-fluoro-5-methyl-1-oxo-1,2-dihydroisoquinolin-3-yl)propanoyl)piperazin-1-yl)benzonitrile]",< 50
9,"Cc1cc(F)cc2c(=O)[nH]c(CCC(=O)N3C4CCC3CN(c3ccc(Cl)cc3)C4)cc12 [Example 216, 3-(3-(3-(4-chlorophenyl)-3,8-diazabicyclo[3.2.1]octan-8-yl)-3-oxopropyl)-7-fluoro-5-methylisoquinolin-1(2H)-one]",< 50
10,"N#Cc1ccc(N2CCN(CCCc3cc4ncccc4c(=O)[nH]3)CC2)cc1 [Example 221, 4-(4-(3-(5-oxo-5,6-dihydro-1,6-naphthyridin-7-yl)propyl)piperazin-1-yl)benzonitrile]",50 to 80
11,"Cc1ccc(F)c2c(=O)[nH]c(CCCN3CCN(C(=O)c4ccc(F)cc4)CC3)cc12 [Example 67, 8-fluoro-3-(3-(4-(4-fluorobenzoyl)piperazin-1-yl)propyl)-5-methylisoquinolin-1(2H)-one]",< 50
12,"O=C(CCc1cc2ccc(F)cc2c(=O)[nH]1)N1CC[C@@H](c2ccc(F)cc2)C1 [Example 117, (S)-7-fluoro-3-(3-(3-(4-fluorophenyl)pyrrolidin-1-yl)-3-oxopropyl)isoquinolin-1(2H)-one]",< 50
13,"N#Cc1ccc(N2CC3CCC(C2)N3C(=O)CCc2cc3ccc(F)cc3c(=O)[nH]2)nc1 [Example 220, 6-(8-(3-(7-fluoro-1-oxo-1,2-dihydroisoquinolin-3-yl)propanoyl)3,8-diazabicyclo[3.2.1]octan-3-yl)nicotinonitrile]",< 50
14,O=c1[nH]c(CCCN2CC=C(c3ccc(F)nc3)CC2)cc2cccc(F)c12 [Example 43],< 50
15,"Cc1ccc(F)c2c(=O)[nH]c(CCCN3CCN(c4ccc(C#N)nc4)CC3)cc12 [Example 21, 5-(4-(3-(8-fluoro-5-methyl-1-oxo-1,2-dihydroisoquinolin-3-yl)propyl)piperazin-1-yl)picolinonitrile]",< 50
16,"N#Cc1ccc(F)c(N2CCN(C(=O)CCc3cc4cccc(F)c4c(=O)[nH]3)CC2)c1 [Example 79, 4-fluoro-3-(4-(3-(8-fluoro-1-oxo-1,2-dihydroisoquinolin-3-yl)propanoyl)piperazin-1-yl)benzonitrile]",< 50
17,"Cc1cc(F)cc2c(=O)[nH]c(CCCN3CCN(c4ccc(C(F)(F)F)cc4)CC3)cc12 [Example 39, 7-fluoro-5-methyl-3-(3-(4-(4-(trifluoromethyl)phenyl)piperazin-1-yl)propyl)isoquinolin-1(2H)-one]",< 50
18,"Cc1ccc(F)c2c(=O)[nH]c(CCC(=O)N3C4CCC3CN(c3ccc(F)cc3)C4)cc12 [Example 208, 8-fluoro-3-(3-(3-(4-fluorophenyl)-3,8-diazabicyclo[3.2.1]octan-8-yl)-3-oxopropyl)-5-methylisoquinolin-1(2H)-one]",< 50
19,"Cc1cc(F)cc2c(=O)[nH]c(CCCN3CCN(c4ccc(C#N)cc4F)CC3)cc12 [Example 37, 3-fluoro-4-(4-(3-(7-fluoro-5-methyl-1-oxo-1,2-dihydroisoquinolin-3-yl)propyl)piperazin-1-yl)benzonitrile]",< 50
20,"O=C(CCc1cc2cccc(F)c2c(=O)[nH]1)N1CCN(C(=O)C2CC2)CC1 [Example 182, 3-(3-(4-(cyclopropanecarbonyl)piperazin-1-yl)-3-oxopropyl)-8-fluoroisoquinolin-1(2H)-one]",< 50
21,"Cc1cc(F)cc2c(=O)[nH]c(CCC(=O)N3CCN(c4ccc(Cl)cc4)CC3)cc12 [Example 155, 3-(3-(4-(4-chlorophenyl)piperazin-1-yl)-3-oxopropyl)-7-fluoro-5-methylisoquinolin-1(2H)-one]",< 50
22,"Cc1cc(F)cc2c(=O)[nH]c(CCCN3C4CCC3CN(c3ccc(C#N)cn3)C4)cc12 [Example 205, 6-(8-(3-(7-fluoro-5-methyl-1-oxo-1,2-dihydroisoquinolin-3-yl)propyl)-3,8-diazabicyclo[3.2.1]octan-3-yl)nicotinonitrile]",50 to 80
23,"O=C(CCc1cc2ccc(F)cc2c(=O)[nH]1)N1CCN(c2ccc(Cl)cc2)CC1 [Example 105, 3-(3-(4-(4-chlorophenyl)piperazin-1-yl)-3-oxopropyl)-7-fluoroisoquinolin-1(2H)-one]",< 50
24,"Cc1cc(F)cc2c(=O)[nH]c(CCC(=O)N3CCN(C(=O)C(C)C)CC3)cc12 [Example 189, 7-fluoro-3-(3-(4-isobutyrylpiperazin-1-yl)-3-oxopropyl)-5-methylisoquinolin-1(2H)-one]",< 50
25,"O=c1[nH]c(CCCN2CC=C(c3ccc(C(F)(F)F)cc3)CC2)cc2cccc(F)c12 [Example 45, 8-fluoro-3-(3-(4-(4-(trifluoromethyl)phenyl)-3,6-dihydropyridin-1(2H)-yl)propyl)isoquinolin-1(2H)-one]",50 to 80
26,"O=C(CCc1cc2ccc(F)cc2c(=O)[nH]1)N1CCN(c2ccc(F)cc2F)CC1 [Example 106, 3-(3-(4-(2,4-difluorophenyl)piperazin-1-yl)-3-oxopropyl)-7-fluoroisoquinolin-1(2H)-one]",< 50

# Same assay, conditions: PARP-1 enzyme activity
row,Compound,IC50 [nM]
1,"Cc1ccc(F)c2c(=O)[nH]c(CCC(=O)N3CCN(c4ccc(C#N)cc4F)CC3)cc12 [Example 128, 3-fluoro-4-(4-(3-(8-fluoro-5-methyl-1-oxo-1,2-dihydroisoquinolin-3-yl)propanoyl)piperazin-1-yl)benzonitrile]",1.38
2,"Cc1ccc(F)c2c(=O)[nH]c(CCCN3CCN(c4ccc(C#N)nc4)CC3)cc12 [Example 21, 5-(4-(3-(8-fluoro-5-methyl-1-oxo-1,2-dihydroisoquinolin-3-yl)propyl)piperazin-1-yl)picolinonitrile]",1.09
